Assays:
[1] = tested on: Winter oilseed rape (cv. Pronto); test: Root growth and morphological parameters in winter oilseed rape (Example 2); assay type: in vivo; details: based on untreated control; for SPAD: green coloration
Procedure: The formulations employed in Example 2 are prepared by introducing an emulsion concentrate comprising 60 g/l metconazole, of the formula (II), and/or an aqueous concentrate comprising 460 g/l mepiquat chloride in suitable amounts. The combination of mepiquat chloride and metconazole is employed in the form of an aqueous SL readymix comprising 21 g/l metconazole, 300 g/l mepiquat chloride and 610 g/l further formulation auxiliaries.
Winter oilseed rape (cv. Pronto) was sown in autumn (Sep. 13, 2000) and treated approximately one month later (Oct. 19, 2000) in accordance with the information given in Table 2. Some of the plants were harvested in autumn on Dec. 07, 2000, while others were harvested in spring on Apr. 03, 2001 and the following morphological parameters were analyzed: plant length; shoot fresh and dry weight (drying: 24 h at 105° C.); total area of all leaves; SPAP (relative units of green coloration determined using a Minolta chlorophyll-measuring meter SPAP 502); root fresh and dry weight (drying: 24 h at 105° C.); storage root fresh weight; length, surface area and volume of the hair roots, and number of root tips (scanning and WinRhizo determination). The results, each of which is based on the untreated control, are compiled in Table 2, the values for the plants harvested in autumn being shown first and the values for the plants harvested in spring being shown second.

[2] = tested on: Winter oilseed rape (cv. Pronto); test: Shoot elongation in winter oilseed rape (Example 1); assay type: in vivo; details: treated Oct. 19, 2000; for Stage A1: Reduction / Stage A1: rel. length: rating A1 Oct. 26, 2000; for Stage A2: Reduction / Stage A2: rel. length: rating A2 Nov. 16, 2000
Procedure: The tank mixes employed in Example 1 are prepared by stirring an emulsion concentrate comprising 90 g/l metconazole, of the formula (II), and an aqueous concentrate comprising 600 g/l mepiquat chloride (MQC) using a magnetic stirrer.
Winter oilseed rape (cv. Pronto) was sown in autumn (Sep. 13, 2000) and treated approximately one month later (Oct. 19, 2000) in accordance with the information given in Table 1. A few weeks later, the shoot elongation and the root development were assessed (A1 on Oct. 26, 2000 and A2 on Nov. 16, 2000).

[3] = 28 g/ha, autumn harvest Dec. 07, 2000
[4] = 28 g/ha, spring harvest Apr. 03, 2001
[5] = 84 g/ha, autumn harvest Dec. 07, 2000
[6] = 84 g/ha, spring harvest Apr. 03, 2001
[7] = 400 g/ha, autumn harvest Dec. 07, 2000
[8] = 400 g/ha, spring harvest Apr. 03, 2001

CC1(C)CCC(Cc2ccc(Cl)cc2)C1(O)Cn1cncn1 (centres unmarked) [Metconazole, metconazole]
Hair root surface area [1, 3]: 116% | Hair root volume [1, 3]: 125% | Leaf surface area [1, 3]: 84% | Number of root tips [1, 3]: 93% | Plant height [1, 3]: 61% | Root hair length [1, 3]: 107% | Shoot dry weight [1, 3]: 85% | Shoot fresh weight [1, 3]: 82% | Storage root fresh weight [1, 3]: 94% | Total root dry weight [1, 3]: 94% | Total root fresh weight [1, 3]: 92% | SPAD [1, 3]: 107 | Hair root surface area [1, 4]: 134% | Hair root volume [1, 4]: 145% | Leaf surface area [1, 4]: 106% | Number of root tips [1, 4]: 112% | Plant height [1, 4]: 91% | Root hair length [1, 4]: 126% | Shoot dry weight [1, 4]: 112% | Shoot fresh weight [1, 4]: 122% | Storage root fresh weight [1, 4]: 115% | Total root dry weight [1, 4]: 128% | Total root fresh weight [1, 4]: 115% | SPAD [1, 4]: 103 | Hair root surface area [1, 5]: 97% | Hair root volume [1, 5]: 101% | Leaf surface area [1, 5]: 61% | Number of root tips [1, 5]: 87% | Plant height [1, 5]: 46% | Root hair length [1, 5]: 94% | Shoot dry weight [1, 5]: 67% | Shoot fresh weight [1, 5]: 57% | Storage root fresh weight [1, 5]: 74% | Total root dry weight [1, 5]: 75% | Total root fresh weight [1, 5]: 78% | SPAD [1, 5]: 116 | Hair root surface area [1, 6]: 148% | Hair root volume [1, 6]: 183% | Leaf surface area [1, 6]: 127% | Number of root tips [1, 6]: 116% | Plant height [1, 6]: 86% | Root hair length [1, 6]: 129% | Shoot dry weight [1, 6]: 136% | Shoot fresh weight [1, 6]: 150% | Storage root fresh weight [1, 6]: 138% | Total root dry weight [1, 6]: 161% | Total root fresh weight [1, 6]: 150% | SPAD [1, 6]: 104 | Stage A1: Reduction ([2]; 21 g/ha): 19% | Stage A1: rel. length ([2]; 21 g/ha): 81 | Stage A2: Reduction ([2]; 21 g/ha): 39% | Stage A2: rel. length ([2]; 21 g/ha): 61

C[N+]1(C)CCCCC1.[Cl-] [MQC, N,N-dimethylpiperidinium chloride]
Hair root surface area [1, 7]: 131% | Hair root volume [1, 7]: 154% | Leaf surface area [1, 7]: 116% | Number of root tips [1, 7]: 94% | Plant height [1, 7]: 96% | Root hair length [1, 7]: 112% | Shoot dry weight [1, 7]: 112% | Shoot fresh weight [1, 7]: 111% | Storage root fresh weight [1, 7]: 118% | Total root dry weight [1, 7]: 120% | Total root fresh weight [1, 7]: 123% | SPAD [1, 7]: 102; 102 | Hair root surface area [1, 8]: 136% | Hair root volume [1, 8]: 157% | Leaf surface area [1, 8]: 103% | Number of root tips [1, 8]: 123% | Plant height [1, 8]: 93% | Root hair length [1, 8]: 123% | Shoot dry weight [1, 8]: 99% | Shoot fresh weight [1, 8]: 114% | Storage root fresh weight [1, 8]: 94% | Total root dry weight [1, 8]: 107% | Total root fresh weight [1, 8]: 112% | SPAD [1, 8]: 102; 102 | Stage A1: Reduction ([2]; 400 g/ha): 0% | Stage A1: rel. length ([2]; 400 g/ha): 100 | Stage A2: Reduction ([2]; 400 g/ha): 4% | Stage A2: rel. length ([2]; 400 g/ha): 96
